The values below come from the supplement of paper PMC10307832.

Common to all, as to experiment: relative viability (nuclei count vs DMSO), 5 days (fraction); higher = more cells survive
Compound in assay [1]: CC[C@H](Nc1ncnc2[nH]cnc12)c1nc2cccc(F)c2c(=O)n1-c1ccccc1 [Idelalisib] + COc1cccc2cc(-c3nc([C@H]4CC[C@H](C(=O)O)CC4)n4ncnc(N)c34)[nH]c12 [OSI-027] (partner 0.5 µM)
In short, it runs like this: (§1)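 Lung cancer cell lines were seeded in 1536-well plates and dosed by pin tool the next day, with either a single drug or a fixed anchor-drug dose combined with five library-drug doses (not always all listed) spaced in √10 steps. Five days later, one step fixed the cells and stained their nuclei (final 0.05% Triton X-100, 1% formaldehyde, 1 ug/ml Hoechst), and nuclei were counted on 4× images. Relative viability is the nuclei count in treated wells divided by the count in vehicle wells, and each value is the median of duplicate plates.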

Compound in assay [2]: Nc1nc2[nH]cc(CCc3ccc(C(=O)N[C@@H](CCC(=O)O)C(=O)O)cc3)c2c(=O)[nH]1 [Pemetrexed] + Nc1ncn([C@H]2C[C@H](O)[C@@H](CO)O2)c(=O)n1 [Decitabine] (partner 2 µM)
In short, it runs like this: as §1

Compound in assay [3]: CC[C@H](Nc1ncnc2[nH]cnc12)c1nc2cccc(F)c2c(=O)n1-c1ccccc1 [Idelalisib] + CS(=O)(=O)N1CCN(Cc2cc3nc(-c4cccc5[nH]ncc45)nc(N4CCOCC4)c3s2)CC1 [Pictilisib] (partner 1 µM)
In short, it runs like this:
as §1

Compound in assay [4]: Nc1nc2[nH]cc(CCc3ccc(C(=O)N[C@@H](CCC(=O)O)C(=O)O)cc3)c2c(=O)[nH]1 [Pemetrexed] + CS(=O)(=O)CCNCc1ccc(-c2ccc3ncnc(Nc4ccc(OCc5cccc(F)c5)c(Cl)c4)c3c2)o1 [Lapatinib] (partner 2 µM)
In short, it runs like this:
as §1

With NCI-H441, the relative viability was found to be 0.788 in assay [1] (first compound 0.04 µM); 0.561 in assay [1] (first compound 0.1265 µM); 0.397 in assay [1] (first compound 0.4 µM); 0.526 in assay [1] (first compound 1.265 µM); 0.616 in assay [1] (first compound 4 µM); 0.2 in assay [2] (first compound 0.002 µM). In addition, the relative viability turned out to be 0.308 in assay [2] (first compound 0.006325 µM); 0.244 in assay [2] (first compound 0.02 µM); 0.232 in assay [2] (first compound 0.06325 µM); 0.215 in assay [2] (first compound 0.2 µM); 0.522 in assay [3] (first compound 0.04 µM); 0.451 in assay [3] (first compound 0.1265 µM). Further, the relative viability in assay [3] (first compound 1.265 µM) came to 0.375; in assay [3] (first compound 4 µM), 0.393.

In the case of NCI-H520, the relative viability in assay [1] (first compound 0.04 µM) turned out to be 0.287; in assay [1] (first compound 0.1265 µM) it was 0.265; in assay [1] (first compound 0.4 µM), 0.186; in assay [1] (first compound 1.265 µM) it was 0.206; in assay [1] (first compound 4 µM), 0.179; in assay [4] (first compound 0.002 µM), 0.803. Moreover, the relative viability worked out at 0.886 in assay [4] (first compound 0.006325 µM); 0.833 in assay [4] (first compound 0.02 µM); 0.829 in assay [4] (first compound 0.06325 µM); 0.838 in assay [4] (first compound 0.2 µM); 0.504 in assay [2] (first compound 0.002 µM); 0.453 in assay [2] (first compound 0.006325 µM). Further, the relative viability in assay [2] (first compound 0.02 µM) is 0.538; in assay [2] (first compound 0.06325 µM), 0.479; in assay [2] (first compound 0.2 µM) it was 0.494; in assay [3] (first compound 0.04 µM), 0.394; in assay [3] (first compound 0.1265 µM) it was 0.308; in assay [3] (first compound 0.4 µM), 0.283. In addition, the relative viability came to 0.294 in assay [3] (first compound 1.265 µM) and 0.309 in assay [3] (first compound 4 µM).

Turning to CAL-12T, the relative viability in assay [1] (first compound 0.04 µM) worked out at 0.643; in assay [1] (first compound 0.1265 µM), 0.753; in assay [1] (first compound 0.4 µM) it was 0.537; in assay [1] (first compound 1.265 µM), 0.569; in assay [1] (first compound 4 µM), 0.537; in assay [4] (first compound 0.002 µM), 0.549. Further, the relative viability in assay [4] (first compound 0.006325 µM) was determined as 0.678; in assay [4] (first compound 0.02 µM) it was 0.615; in assay [4] (first compound 0.06325 µM), 0.774; in assay [4] (first compound 0.2 µM) it was 0.59; in assay [3] (first compound 0.04 µM), 0.382; in assay [3] (first compound 0.1265 µM) it was 0.47. The relative viability in assay [3] (first compound 0.4 µM) was determined as 0.257; in assay [3] (first compound 1.265 µM) it was 0.43; in assay [3] (first compound 4 µM) it was 0.417.

With HCC-827, the relative viability turned out to be 0.928 in assay [1] (first compound 0.04 µM); 0.738 in assay [1] (first compound 0.1265 µM); 0.759 in assay [1] (first compound 0.4 µM); 0.698 in assay [1] (first compound 1.265 µM); 0.659 in assay [1] (first compound 4 µM); 0.178 in assay [4] (first compound 0.002 µM). The relative viability was determined as 0.196 in assay [4] (first compound 0.006325 µM); 0.169 in assay [4] (first compound 0.02 µM); 0.191 in assay [4] (first compound 0.06325 µM); 0.166 in assay [4] (first compound 0.2 µM); 0.264 in assay [2] (first compound 0.002 µM); 0.341 in assay [2] (first compound 0.006325 µM). For the same cell line, the relative viability in assay [2] (first compound 0.02 µM) stood at 0.409; in assay [2] (first compound 0.06325 µM), 0.214; in assay [2] (first compound 0.2 µM), 0.305; in assay [3] (first compound 0.04 µM), 0.995; in assay [3] (first compound 0.1265 µM), 1.06; in assay [3] (first compound 0.4 µM), 1.05. Further, the relative viability came out at 1.09 in assay [3] (first compound 1.265 µM) and 0.843 in assay [3] (first compound 4 µM).

On to LC-2-ad, for which the relative viability was 0.944 in assay [1] (first compound 0.04 µM); 0.781 in assay [1] (first compound 0.1265 µM); 0.651 in assay [1] (first compound 0.4 µM); 0.82 in assay [1] (first compound 1.265 µM); 0.715 in assay [1] (first compound 4 µM); 0.747 in assay [4] (first compound 0.002 µM). Besides, the relative viability in assay [4] (first compound 0.006325 µM) is 1.01; in assay [4] (first compound 0.02 µM), 1.01; in assay [4] (first compound 0.06325 µM), 0.27; in assay [4] (first compound 0.2 µM), 0.179; in assay [2] (first compound 0.002 µM), 0.807; in assay [2] (first compound 0.006325 µM), 0.771. The relative viability turned out to be 0.779 in assay [2] (first compound 0.02 µM); 0.755 in assay [2] (first compound 0.06325 µM); 0.316 in assay [2] (first compound 0.2 µM); 0.534 in assay [3] (first compound 0.04 µM); 0.516 in assay [3] (first compound 0.1265 µM); 0.415 in assay [3] (first compound 0.4 µM). The relative viability was 0.467 in assay [3] (first compound 1.265 µM) and 0.417 in assay [3] (first compound 4 µM).

NCI-H2170: the relative viability in assay [1] (first compound 0.04 µM) was found to be 0.722; in assay [1] (first compound 0.1265 µM) it was 0.793; in assay [1] (first compound 0.4 µM) it was 0.637; in assay [1] (first compound 1.265 µM) it was 0.609; in assay [1] (first compound 4 µM), 0.649; in assay [4] (first compound 0.002 µM), 0.302. Besides, the relative viability worked out at 0.282 in assay [4] (first compound 0.006325 µM); 0.268 in assay [4] (first compound 0.02 µM); 0.293 in assay [4] (first compound 0.06325 µM); 0.297 in assay [4] (first compound 0.2 µM); 0.436 in assay [2] (first compound 0.002 µM); 0.48 in assay [2] (first compound 0.006325 µM). The relative viability was determined as 0.458 in assay [2] (first compound 0.02 µM); 0.462 in assay [2] (first compound 0.06325 µM); 0.459 in assay [2] (first compound 0.2 µM); 0.313 in assay [3] (first compound 0.04 µM); 0.312 in assay [3] (first compound 0.1265 µM); 0.228 in assay [3] (first compound 0.4 µM). Further, the values for the relative viability in assay [3] (first compound 1.265 µM) and in assay [3] (first compound 4 µM) were 0.295 and 0.29, respectively.

As for NCI-H1648, the relative viability in assay [1] (first compound 0.04 µM) was determined as 0.272; in assay [1] (first compound 0.1265 µM), 0.368; in assay [1] (first compound 0.4 µM), 0.261; in assay [1] (first compound 1.265 µM) it was 0.285; in assay [1] (first compound 4 µM), 0.26; in assay [2] (first compound 0.002 µM), 0.407. In addition, the relative viability in assay [2] (first compound 0.006325 µM) stood at 0.431; in assay [2] (first compound 0.02 µM), 0.655; in assay [2] (first compound 0.06325 µM) it was 0.508; in assay [2] (first compound 0.2 µM), 0.394.

In the case of NCI-H1299, the relative viability came to 0.926 in assay [4] (first compound 0.002 µM); 0.92 in assay [4] (first compound 0.006325 µM); 0.964 in assay [4] (first compound 0.02 µM); 0.955 in assay [4] (first compound 0.06325 µM); 0.918 in assay [4] (first compound 0.2 µM); 0.764 in assay [3] (first compound 0.04 µM). Further, the relative viability was 0.758 in assay [3] (first compound 0.1265 µM), 0.833 in assay [3] (first compound 0.4 µM), 0.973 in assay [3] (first compound 1.265 µM) and 0.606 in assay [3] (first compound 4 µM).

For the cell line Calu-6, the relative viability in assay [4] (first compound 0.002 µM) is 1.09; in assay [4] (first compound 0.006325 µM) it was 1.02; in assay [4] (first compound 0.02 µM) it was 1.18; in assay [4] (first compound 0.06325 µM), 0.999; in assay [4] (first compound 0.2 µM) it was 0.84; in assay [3] (first compound 0.04 µM), 1.05. In addition, the relative viability in assay [3] (first compound 0.1265 µM) was 0.947; in assay [3] (first compound 0.4 µM), 0.934; in assay [3] (first compound 1.265 µM), 0.902; in assay [3] (first compound 4 µM), 0.865.
